Measured values reported in the supplement of paper PMC10307832.

What was measured:
Test in all cases: relative viability (nuclei count vs DMSO), 5 days (fraction); higher = more cells survive
[1] = compound: C(C(=O)C(=O)O)Br [Bromopyruvate] + CC1(C)CCC(c2ccc(Cl)cc2)=C(CN2CCN(c3ccc(C(=O)NS(=O)(=O)c4ccc(N[C@H](CCN5CCOCC5)CSc5ccccc5)c(S(=O)(=O)C(F)(F)F)c4)cc3)CC2)C1 [Navitoclax] (partner 0.5 µM)
Procedure, shortened: (§1)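 The day after seeding in 1536-well plates, lung cancer cell lines were treated by pin tool with a single drug, or with a fixed anchor-drug dose together with five library-drug doses (not always all listed) in √10 steps. After 5 days, a combined fix-and-stain solution (final 0.05% Triton X-100, 1% formaldehyde, 1 ug/ml Hoechst) was added. Nuclei counted on 4× images gave relative viability as treated counts over vehicle counts, reported as the median of duplicate plates.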

[2] = compound: C(C(=O)C(=O)O)Br [Bromopyruvate] + C[C@]1(O)C[C@@H](c2nc(-c3ccc4ccc(-c5ccccc5)nc4c3)c3c(N)nccn32)C1 [Linsitinib] (partner 1 µM)
Procedure, shortened: as §1

[3] = compound: C(C(=O)C(=O)O)Br [Bromopyruvate] + CC(=O)c1c(C)c2cnc(Nc3ccc(N4CCNCC4)cn3)nc2n(C2CCCC2)c1=O [Palbociclib] (partner 0.5 µM)
Procedure, shortened: as §1

[4] = compound: C(C(=O)C(=O)O)Br [Bromopyruvate] + CC(=O)Nc1cccc(-n2c(=O)n(C3CC3)c(=O)c3c(Nc4ccc(I)cc4F)n(C)c(=O)c(C)c32)c1 [Trametinib] (partner 0.02 µM)
Procedure, shortened: as §1

| Cell Line | relative viability ([1]; first compound 1 µM) | relative viability ([1]; first compound 3.162 µM) | relative viability ([1]; first compound 10 µM) | relative viability ([1]; first compound 31.62 µM) | relative viability ([1]; first compound 100 µM) | relative viability ([2]; first compound 1 µM) | relative viability ([2]; first compound 3.162 µM) | relative viability ([2]; first compound 10 µM) | relative viability ([2]; first compound 31.62 µM) | relative viability ([2]; first compound 100 µM) | relative viability ([3]; first compound 1 µM) | relative viability ([3]; first compound 3.162 µM) | relative viability ([3]; first compound 10 µM) | relative viability ([3]; first compound 31.62 µM) | relative viability ([3]; first compound 100 µM) | relative viability ([4]; first compound 1 µM) | relative viability ([4]; first compound 3.162 µM) | relative viability ([4]; first compound 10 µM) | relative viability ([4]; first compound 31.62 µM) | relative viability ([4]; first compound 100 µM) |
| --- | --- | --- | --- | --- | --- | --- | --- | --- | --- | --- | --- | --- | --- | --- | --- | --- | --- | --- | --- | --- |
| NCI-H2023 | 0.97 | 1.06 | 1.06 | 1.09 | 1.06 | 0.664 | 0.72 | 0.682 | 0.752 | 0.605 | 0.406 | 0.382 | 0.4 | 0.411 | 0.385 | 0.55 | 0.483 | 0.517 | 0.562 | 0.482 |
| NCI-H2085 | 1.08 | 1.19 | 1.25 | 1.07 | 1.05 | 0.984 | 1.04 | 0.864 | 0.876 | 0.639 | 0.491 | 0.469 | 0.489 | 0.539 | 0.521 | 0.559 | 0.685 | 0.516 | 0.563 | 0.341 |
| NCI-H2087 | 0.974 | 1.08 | 0.987 | 0.966 | 1.02 | 0.856 | 1.04 | 0.932 | 0.954 | 0.959 | 0.222 | 0.232 | 0.19 | 0.221 | 0.227 | 0.224 | 0.189 | 0.156 | 0.175 | 0.185 |
| NCI-H2126 | 0.827 | 0.9 | 0.906 | 0.856 | 0.873 | 0.718 | 0.693 | 0.697 | 0.701 | 0.753 | 0.34 | 0.335 | 0.306 | 0.375 | 0.343 | 0.547 | 0.579 | 0.559 | 0.591 | 0.57 |
| NCI-H2228 | 0.936 | 0.698 | 0.864 | 0.469 | 0.63 | 0.81 | 0.837 | 0.693 | 0.535 | 0.505 | 0.791 | 0.9 | 0.665 | 0.85 | 0.775 | 0.472 | 0.505 | 0.548 | 0.514 | 0.538 |
| NCI-H2347 | 0.714 | 0.742 | 1.13 | 0.553 | 0.778 | 0.995 | 0.989 | 1.21 | 0.756 | 1.08 | 0.44 | 0.493 | 0.399 | 0.405 | 0.448 | 0.224 | 0.28 | 0.335 | 0.248 | 0.274 |
| NCI-H2405 | 0.903 | 0.94 | 0.971 | 0.774 | 1.15 | 0.938 | 0.948 | 1.11 | 0.727 | 0.907 | 0.51 | 0.53 | 0.549 | – | 0.458 | 0.735 | 0.739 | 0.764 | – | 0.684 |
| NCI-H3122 | 1.03 | 0.974 | 1.08 | 1.01 | 1.03 | 1.02 | 1.02 | 1.03 | 0.987 | 0.941 | 0.167 | 0.202 | 0.197 | 0.178 | 0.13 | 0.223 | 0.237 | 0.24 | 0.204 | 0.129 |
| PC-3 [JPC-3] | 0.751 | 0.811 | 0.838 | 0.727 | 0.828 | 1.02 | 0.975 | 0.943 | 0.914 | 1.01 | 0.548 | – | 0.537 | – | 0.536 | 0.734 | – | 0.787 | – | 0.734 |
